Measured values reported in patent US20050209278A1, “Piperidinyl- and piperazinyl-sulfonylmethyl hydroxamic acids and their use as protease inhibitors” (priority 2002, published 2005).

Target: T1, MMP-1 (Homo sapiens, UniProt P03956)
T1 construct: made in house; host or cells: MMP-1-transfected HT-1080 cells (spent media)
T1 sequence (P03956 100-469): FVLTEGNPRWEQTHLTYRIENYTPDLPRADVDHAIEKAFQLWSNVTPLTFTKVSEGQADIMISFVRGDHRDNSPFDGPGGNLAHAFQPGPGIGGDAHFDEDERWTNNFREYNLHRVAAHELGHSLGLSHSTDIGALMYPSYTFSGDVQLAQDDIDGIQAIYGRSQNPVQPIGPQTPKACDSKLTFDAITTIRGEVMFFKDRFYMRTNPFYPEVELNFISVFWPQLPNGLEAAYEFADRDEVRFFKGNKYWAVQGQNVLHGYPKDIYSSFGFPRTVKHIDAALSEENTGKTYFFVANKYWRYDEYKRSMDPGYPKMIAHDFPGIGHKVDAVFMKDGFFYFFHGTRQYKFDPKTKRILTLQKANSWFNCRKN
Assay: In vitro MMP inhibition, IC50 determination (fluorogenic substrate I)
Format: biochemical
Conditions: value in parentheses; read-out: MMP-1 (IC-50)

IC50, > 10 µM:
CCCCOc1ccc(N2CCN(S(=O)(=O)C3(C(=O)NO)CCN(C(=O)CCC)CC3)CC2)cc1 [Example 290]

Same assay, conditions: value in parenthesis; read-out: MMP-1 (IC-50)

IC50, > 10 µM:
CCOCCCc1ccc(N2CCN(S(=O)(=O)C3(C(=O)NO)CCN(CCOC)CC3)CC2)cc1 [Example 179]
COCCCc1ccc(N2CCN(S(=O)(=O)C3(C(=O)NO)CCN(CCOC)CC3)CC2)cc1 [Example 180]
COCCN1CCC(C(=O)NO)(S(=O)(=O)N2CCN(c3ccc(CC4CCCCC4)cc3)CC2)CC1 [Example 181]
COCCN1CCC(C(=O)NO)(S(=O)(=O)N2CCN(c3ccc(CCC4CCCC4)cc3)CC2)CC1 [Example 182]
COCCN1CCC(C(=O)NO)(S(=O)(=O)N2CCN(c3ccc(CC4CCC4)cc3)CC2)CC1 [Example 183]
CCOc1ccc(N2CCN(S(=O)(=O)C3(C(=O)NO)CCN(CCOC)CC3)CC2)cc1F [Example 184]
CCCOc1ccc(N2CCN(S(=O)(=O)C3(C(=O)NO)CCN(CCOC)CC3)CC2)cc1F [Example 185]
COCCN1CCC(C(=O)NO)(S(=O)(=O)N2CCN(c3ccc(C#N)cc3)CC2)CC1 [Example 186]
CCc1cnc(N2CCN(S(=O)(=O)C3(C(=O)NO)CCN(CCOC)CC3)CC2)nc1 [Example 187]
CCC(CC)Cc1ccc(N2CCN(S(=O)(=O)C3(C(=O)NO)CCN(CCOC)CC3)CC2)cc1 [Example 188]
